What was measured:
human MAO-B [1] = molecular target: T1, human MAO-B (Homo sapiens, UniProt P27338); experiment: Monoamine oxidase B functional assay (kynuramine deamination, fluorescence); type: biochemical; details: membrane fractions from insect cells expressing human MAO-B; kynuramine substrate
T1 construct: purchased BD Biosciences Discovery Labware, Woburn Mass; (BD Supersomes Enzymes); host or cells: insect cells
T1 sequence (P27338 1-520): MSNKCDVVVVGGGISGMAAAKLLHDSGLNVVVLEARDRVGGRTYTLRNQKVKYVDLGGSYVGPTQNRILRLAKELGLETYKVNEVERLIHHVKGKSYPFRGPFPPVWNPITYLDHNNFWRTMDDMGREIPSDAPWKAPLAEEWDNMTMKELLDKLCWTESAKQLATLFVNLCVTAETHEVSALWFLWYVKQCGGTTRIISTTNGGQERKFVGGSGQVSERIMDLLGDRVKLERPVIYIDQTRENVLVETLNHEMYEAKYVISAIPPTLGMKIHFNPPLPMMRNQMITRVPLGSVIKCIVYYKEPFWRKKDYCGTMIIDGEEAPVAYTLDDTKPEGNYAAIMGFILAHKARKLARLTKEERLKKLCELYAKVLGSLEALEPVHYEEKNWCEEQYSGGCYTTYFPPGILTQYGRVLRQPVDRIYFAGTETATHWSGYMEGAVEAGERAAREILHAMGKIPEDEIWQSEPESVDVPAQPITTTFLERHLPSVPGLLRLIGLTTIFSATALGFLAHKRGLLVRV
Description: Functional assay: MAO-B containing membrane fractions prepared from insect cells expressing human MAO-B (BD Supersomes Enzymes, BD Biosciences Discovery Labware, Woburn Mass.) were used as a source of MAO-B. Assays were conducted in 96-well plates in a final volume of 200 μL. The assay buffer was 0.1 M potassium phosphate (pH 7.4). The assay system consisted of three mixes: a) inhibitor dilution mix, which was the assay buffer, b) substrate/buffer/control insect cell protein mix: 4× substrate-80 μM kynuramine and 4× control insect cell protein, and c) enzyme/buffer mix: 4× concentrate of MAO-B prepared in assay buffer. The final MAO-B concentration was 0.015 mg/mL. The final total, normalized protein concentration, using control insect protein, was 0.06 mg/mL. Test compounds were serial diluted 3-fold in the inhibitor dilution mix directly in the 96-well plate (total final volume of 100 μL). Fifty μL of the substrate/buffer mix was added to each well. The 96-well plate, containing test compound and MAO substrate (150 μL total volume), was preincubated to 37° C. The reaction was initiated with 50 μL of enzyme/buffer mix. […] Product formation was quantified by comparing the fluorescence emission of the samples to that of known amounts of authentic metabolite standard, 4-hydroxyquinoline, the product formed from kynuramine deamination. […]

human MAO-B [2] = molecular target: T1, human MAO-B; experiment: MAO-B radioligand binding assay ([3H]-DMAB or [3H] 5-Fluoro-2-(1-methyl-1H-indazol-5-yl)-oxazolo[5,4-b]pyridine); details: membrane fractions from insect cells expressing human MAO-B; radioligand 8-10 nM
Description: Radioligand binding assay: MAO-B containing membrane fractions prepared from insect cells expressing human MAO-B (BD Supersomes Enzymes, BD Biosciences Discovery Labware, Woburn Mass.) were used as a source of MAO-B. [^3H]-DMAB or [^3H] 5-Fluoro-2-(1-methyl-1H-indazol-5-yl)-oxazolo[5,4-b]pyridine were synthesized at a specific activity of ˜80 Ci/mmol. The final concentration of radioligand for tissue homogenate binding assay was 8-10 nM. MAO-B membrane fractions were diluted with phosphate buffered saline (PBS) to 0.25 mg/mL from original 5 mg/mL volume and 200 μl was used in assay for a final mass of 50 μg/assay tube. Unlabeled test compounds were dissolved in dimethylsulfoxide (DMSO) at 1 mM. Dilution of test compound to various concentrations was made with PBS containing 2% DMSO. Total binding was defined in the absence of competing compound, and non-displaceable binding was determined in the presence of 1 μM unlabeled self block. Compound dilutions (10×) were added into the assay tube (25 μL each per tube, separately) containing 200 μL diluted MAO-B membrane fraction, and the tubes were pre-incubated at room temperature for 10 minutes. […] Filters were punched into scintillation vials and counted in 2 mL Ultima Gold on Perkin Elmer Tri-Carb 2900TR for 1 minute. […]

Row | Ki (human MAO-B [1]) | IC50 (human MAO-B [2]) | Compound
1 | 18 nM |  | Cn1ccc2cc(-c3nc4ccc(F)nc4o3)cnc21
2 |  | 3.7 nM | Cn1ccc2cc(-c3nc4ccc(F)nc4s3)cnc21
3 |  | 31 nM | CN(C)c1ccc(-c2nc3ccc(F)nc3o2)cc1
